Data published in patent US9198896B2 (priority 2006, dated 2015).
Entries after “also recorded” stand apart in the source; their conditions may differ. Where two headings read alike, the source gives them in different places.

How the values were obtained:
[1] = Pharmacokinetics, single oral dose study; conditions: for ka (apparent absorption rate constant): 1 to 4 h; for k (elimination rate constant): 4-8 h; for half-life / CL/F / Cmax / Tmax: mouse, whole blood, po
[2] = Long-term (chronic) toxicity study, rabbits; conditions: rabbit, long-term treatment
Description: Long-term (chronic) toxicity study: Mode of treatment and dilution by either water or normal saline were identical to acute toxicity study. Chronic toxicity study was made with four species of animals: mice, rat, rabbit and dog.
Rabbits. For experiments with rabbits, two groups were used per mode of treatment. Each group in each mode of treatment consists of 4 animals, either male or female.
However, each animal was placed in a separate cage.
Total number of animals in each group including control and different modes of treatment: 6 (mice), 5 (rats) and 4 (rabbits). Each set of experiment was repeated 4 times for mice and rats and for rabbits 2 times respectively. […] In Table 3, αWeight of animals for mice and rats in gm and for rabbit in Kg.
We also measured the body weights of the animals. […] Besides, we also measured several marker enzymes and metabolites in the blood and sera of dog (see below).

[3] = for Blood cells, remarks: dog and bitch
Description: Hemoglobin was estimated by reacting the blood sample with Drabkin's reagent to convert it to cyanmethemoglobin and measuring the absorbance at 540 nm. Urea was estimated by reacting it with hot acidic diacetylmonoxime in the presence of semicarbarzide and measuring the rose-purple color at 525 nm. Glucose was estimated by glucose oxidase method in the presence of peroxidase and measuring the absorbance of the colored complex of hydroxybenzoate and 4-aminophenazone at 510 nm. Creatinine was measured by reacting it with alkaline picrate and measuring the absorbance of the red-colored complex at 520 nm. Alkaline phosphatase was assayed by its ability to convert phenyl phosphate to inorganic phosphate and phenol. The later reacts with 4-aminoantipyrine to form an orange-red-colored complex, which was measured at 510 nm. Aspartate transaminase was measured by reacting the reaction product oxaloacetate (from the substrate 1-aspartic acid) with 2,4-dinitrophenyl hydrazine. The hydrazone thus formed gives a characteristic brown color when placed in an alkaline medium and was measured at 505 nm. Alanine transaminase was assayed similarly by 2,4-dinitrophenylhydrazine-alkali color reaction; the substrate and products are 1-alanine and pyruvate respectively.
Long-term toxicity test with non-rodents (dog and bitch). Total of 6 animals (4 dogs and 2 bitches) were used for this experiment. The animals were 3-4 months old. Three different modes of treatment were used; two animals received the formulation orally, the other two by intravenous injection and the other two by subcutaneous injection. The total period of treatment was for 4 weeks (5 days per week).
Dogs. For biochemical analysis, blood samples from each individual animal were collected and processed similarly to that of rats. The samples were collected just before the treatment commenced, in mid-phase of the treatment and 7 days after completion of the treatment. The samples were analyzed for the activities of several enzymes and metabolite contents as per the methods described in the respective assay kit and are briefly mentioned before. Hemoglobin estimation and cell count were done with an uncoagulated sample.
However, subcutaneous injections appeared to be painful. The biochemical tests and some hematological studies were performed with blood of the animals, the results of which are presented in the Tables.

EAC cells = experiment: Tumor growth inhibition study; conditions: for % of cells present in respect of the control / No. of EAC cells (in million) / Volume of packed cells: day 3 to day 16
[4] = mice, single oral dose 50 mg/kg
[5] = mice, single oral dose 100 mg/kg
[6] = mice, single oral dose 200 mg/kg

SMILES: CC(=O)C=O [methylglyoxal]
- Lag time [1, 4]: ≈55 min
- V (apparent volume of distribution) [1, 4]: 23.31 L/kg
- ka (apparent absorption rate constant) [1, 4]: 0.277 h⁻¹
- k (elimination rate constant) [1, 4]: 0.33 h⁻¹
- Lag time [1, 5]: ≈50 min
- V (apparent volume of distribution) [1, 5]: 41.84 L/kg
- ka (apparent absorption rate constant) [1, 5]: 0.223 h⁻¹
- k (elimination rate constant) [1, 5]: 0.198 h⁻¹
- Lag time [1, 6]: ≈50 min
- V (apparent volume of distribution) [1, 6]: 80.97 L/kg
- ka (apparent absorption rate constant) [1, 6]: 0.216 h⁻¹
- k (elimination rate constant) [1, 6]: 0.192 h⁻¹
- lag time ([1]; mice, single oral dose, all the three doses (50, 100, 200 mg/kg)): 50 to 55 min
- concentrations in plasma and whole blood compared ([1]; mice, untreated and orally treated): almost identical
- half-life [1]: 2.1 to 3.6 h
- CL/F ([1]; 50 mg/kg): 128 mL/min/kg
- Cmax ([1]; 50 mg/kg): 13.9 µM
- half-life ([1]; 50 mg/kg): 2.1 h
- Tmax ([1]; 50 mg/kg, tmax, mice, single oral dose 50 mg/kg): ~4 h
- CL/F ([1]; 100 mg/kg): 138 mL/min/kg
- Cmax ([1]; 100 mg/kg): 18.7 µM
- half-life ([1]; 100 mg/kg): 3.5 h
- Tmax ([1]; 100 mg/kg, tmax, mice, single oral dose 100 mg/kg): ~4 h
- CL/F ([1]; 200 mg/kg): 259 mL/min/kg
- Cmax ([1]; 200 mg/kg): 19.5 ± 3.36 µM
- half-life ([1]; 200 mg/kg): 3.6 h
- Tmax ([1]; 200 mg/kg, time of peak blood concentration (tmax), mice, single oral doses of 50, 100 and 200 mg/kg): 4 h
- Tmax ([1]; 200 mg/kg, tmax, mice, single oral dose 200 mg/kg): ~4 h
- general physical conditions and behavioral pattern vs control [2]: no abnormalities
- Blood cells, remarks ([3]; After treatment): Mild hypochromia; also recorded: No abnormal cells
- Blood cells, remarks ([3]; Mid-phase treatment): Mild hypochromia; also recorded: No abnormal cells
- Basophils ([3]; dog, in vivo): 0%
- general physical conditions and behavioral pattern vs control ([3]; dog, long-term treatment): no abnormalities
- death ([3]; dogs, during and after the treatment (90 days)): no death occurred
- effect on cell proliferation in the peritoneal cavity (EAC cells; EAC cell-inoculated mice, doses of Table 9): significant inhibitory effect
- % of cells present in respect of the control (EAC cells; MG 30 mg/kg/day, Day 10): 5%
- No. of EAC cells (in million) (EAC cells; MG 30 mg/kg/day, Day 10): 15 ± 2 million
- % of cells present in respect of the control (EAC cells; MG 30 mg/kg/day, Day 14): 13%
- No. of EAC cells (in million) (EAC cells; MG 30 mg/kg/day, Day 14): 230 ± 10 million
- Volume of packed cells (EAC cells; MG 30 mg/kg/day, Day 14): 0.26 ± 0.02 mL
- % of cells present in respect of the control (EAC cells; MG 30 mg/kg/day, Day 18): 23%
- No. of EAC cells (in million) (EAC cells; MG 30 mg/kg/day, Day 18): 820 ± 30 million
- Volume of packed cells (EAC cells; MG 30 mg/kg/day, Day 18): 0.96 ± 0.05 mL
- % of cells present in respect of the control (EAC cells; MG 100 mg/kg/day, Day 10): 0%
- % of cells present in respect of the control (EAC cells; MG 100 mg/kg/day, Day 14): 0%
- % of cells present in respect of the control (EAC cells; MG 100 mg/kg/day, Day 18): 0%
